Measurements from US6855843B2, “Inhibitors of α4 mediated cell adhesion” (Tanabe Seiyaku Co., Ltd., priority 1998, dated 2005).

Target: T1, α4β7 (adhesion of RPMI cells to CS-1) (Homo sapiens, UniProt P13612+P26010)
T1 construct: endogenous in cells
T1 sequence (P13612 34-1032): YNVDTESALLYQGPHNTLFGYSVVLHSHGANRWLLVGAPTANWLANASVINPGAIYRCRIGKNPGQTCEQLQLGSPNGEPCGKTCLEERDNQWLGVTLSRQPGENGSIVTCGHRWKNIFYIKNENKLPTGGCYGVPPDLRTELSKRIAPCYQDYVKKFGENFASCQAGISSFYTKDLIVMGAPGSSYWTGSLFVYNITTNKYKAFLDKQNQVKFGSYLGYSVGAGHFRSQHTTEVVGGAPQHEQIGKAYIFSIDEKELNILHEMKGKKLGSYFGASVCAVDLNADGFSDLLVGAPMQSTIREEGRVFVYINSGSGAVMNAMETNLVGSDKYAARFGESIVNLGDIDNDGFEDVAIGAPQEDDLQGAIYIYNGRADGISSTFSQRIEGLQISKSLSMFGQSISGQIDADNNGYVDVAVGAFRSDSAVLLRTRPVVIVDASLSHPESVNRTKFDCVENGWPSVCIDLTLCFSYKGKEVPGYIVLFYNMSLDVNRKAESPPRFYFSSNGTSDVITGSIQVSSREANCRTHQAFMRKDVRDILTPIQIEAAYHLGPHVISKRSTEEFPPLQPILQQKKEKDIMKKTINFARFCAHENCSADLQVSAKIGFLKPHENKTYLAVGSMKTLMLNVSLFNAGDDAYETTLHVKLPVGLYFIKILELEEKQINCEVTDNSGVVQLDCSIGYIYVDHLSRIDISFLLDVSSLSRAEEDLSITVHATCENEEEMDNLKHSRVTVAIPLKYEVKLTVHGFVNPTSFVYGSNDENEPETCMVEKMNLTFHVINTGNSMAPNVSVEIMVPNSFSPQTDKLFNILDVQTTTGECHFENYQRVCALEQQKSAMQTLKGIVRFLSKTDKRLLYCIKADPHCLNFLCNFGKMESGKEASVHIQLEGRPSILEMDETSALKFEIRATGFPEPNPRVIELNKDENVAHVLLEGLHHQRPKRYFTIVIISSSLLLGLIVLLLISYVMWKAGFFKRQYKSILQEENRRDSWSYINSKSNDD
T1 sequence (P26010 20-798): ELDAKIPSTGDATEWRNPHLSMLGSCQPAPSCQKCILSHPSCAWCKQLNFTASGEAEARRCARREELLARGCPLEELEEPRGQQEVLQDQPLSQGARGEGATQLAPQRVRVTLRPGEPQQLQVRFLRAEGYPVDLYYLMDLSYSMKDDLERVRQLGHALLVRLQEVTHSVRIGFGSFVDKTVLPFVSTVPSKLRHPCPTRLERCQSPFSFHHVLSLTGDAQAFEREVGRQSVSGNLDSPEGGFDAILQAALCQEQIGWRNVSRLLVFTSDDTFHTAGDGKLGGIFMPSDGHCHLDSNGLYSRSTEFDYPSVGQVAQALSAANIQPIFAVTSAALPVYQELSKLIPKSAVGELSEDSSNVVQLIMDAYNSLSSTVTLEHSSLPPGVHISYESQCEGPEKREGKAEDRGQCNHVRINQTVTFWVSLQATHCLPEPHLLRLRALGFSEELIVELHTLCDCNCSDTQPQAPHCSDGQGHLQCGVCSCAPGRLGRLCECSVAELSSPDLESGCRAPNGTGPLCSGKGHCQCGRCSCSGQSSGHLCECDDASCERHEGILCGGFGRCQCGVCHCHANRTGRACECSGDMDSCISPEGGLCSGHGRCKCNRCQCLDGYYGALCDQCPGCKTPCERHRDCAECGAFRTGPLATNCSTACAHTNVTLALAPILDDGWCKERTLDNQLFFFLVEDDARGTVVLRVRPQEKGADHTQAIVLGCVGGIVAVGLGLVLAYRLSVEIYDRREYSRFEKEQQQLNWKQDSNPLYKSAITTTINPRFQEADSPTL
Test: RPMI-CS-1 cell adhesion assay
Assay type: cell-based
Details: adhesion of RPMI B-cell line (expresses α4β7) to CS-1 peptide coated microwells; read-out: RPMI-CS-1 IC50 value range

Compound	IC50
CS(=O)(=O)Nc1ccccc1-c1ccc(C[C@H](NC(=O)c2c(Cl)cccc2Cl)C(=O)O)cc1 [Example 24, N-(2,6-Dichlorobenzoyl)-4-[2-(methanesulfonylamino)phenyl]-L-phenylalanine]	< 0.3 µM
NC(=O)c1ccccc1-c1ccc(C[C@H](NC(=O)c2c(Cl)cccc2Cl)C(=O)O)cc1 [Example 60]	0.3 to 1 µM
COC(=O)[C@H](Cc1ccc(-c2c(OC)cccc2OC)cc1)NC(=O)c1c(Cl)cccc1Cl [Example 7A, N-(2,6-Dichlorobenzoyl)-4-(2,6-dimethoxyphenyl)-L-phenylalanine methyl ester]	< 0.3 µM
CNS(=O)(=O)c1ccccc1-c1ccc(C[C@H](NC(=O)c2c(Cl)cccc2Cl)C(=O)O)cc1 [Example 20, N-(2,6-Dichlorobenzoyl)-4-[2-(N-methylsulfamoyl)phenyl]-L-phenylalanine]	< 0.3 µM
O=C(NCCO)c1ccccc1-c1ccc(C[C@H](NC(=O)c2c(Cl)cccc2Cl)C(=O)O)cc1 [Example 56, N-(2,6-Dichlorobenzoyl)-4-[2-[N-(2-hydroxyethyl)carbamoyl]phenyl]-L-phenylalanine]	0.3 to 1 µM
CCCOc1ccc(C(=O)N[C@@H](Cc2ccc(-c3c(OC)cccc3OC)cc2)C(=O)O)c(Cl)c1 [Example 286]	< 0.3 µM
COc1ccccc1-c1ccc(C[C@H](NC(=O)c2ccc(C(=O)O)cc2Cl)C(=O)O)cc1 [Example 177, N-[2-Chloro-4-carboxybenzoyl]-4-(2-methoxyphenyl)-L-phenylalanine]	< 0.3 µM
COc1cccc(OC)c1-c1ccc(C[C@H](NC(=O)c2c(F)cc(F)cc2F)C(=O)O)cc1 [Example 279]	< 0.3 µM
CN(C)C(=O)c1ccccc1-c1ccc(C[C@H](NC(=O)c2c(Cl)cccc2Cl)C(=O)O)cc1 [Example 58, N-(2,6-Dichlorobenzoyl)-4-[2-(N,N-dimethylcarbamoyl)phenyl]-L-phenylalanine]	0.3 to 1 µM
O=C(N[C@@H](Cc1ccc(-c2c(F)cccc2F)cc1)C(=O)O)c1c(Cl)cccc1Cl [Example 135, N-(2,6-Dichlorobenzoyl)-4-(2,6-difluorophenyl)-L-phenylalanine]	< 0.3 µM
N-(2,6-Dichlorobenzoyl)-4-(2,6-dicyanophenyl)-L-phenylalanine [Example 151]	< 0.3 µM
COc1cccc(OC)c1-c1ccc(C[C@H](NC(=O)c2c(Cl)cc(-c3cccs3)cc2Cl)C(=O)O)cc1 [Example 316]	< 0.3 µM
COc1cccc(OC)c1-c1ccc(C[C@H](NC(=O)c2c(Cl)cccc2Cl)C(=O)NS(C)(=O)=O)cc1 [Example 267, N-(2,6-Dichlorobenzoyl)-4-(2,6-dimethoxyphenyl)-L-phenylalanine N-(methylsulfonyl)amide]	> 5 µM
COc1cccc(OC(C)C)c1-c1ccc(C[C@H](NC(=O)c2c(Cl)cccc2Cl)C(=O)O)cc1 [Example 226, N-(2,6-Dichlorobenzoyl)-4-(2-i-propyloxy-6-methoxyphenyl)-L-phenylalanine]	< 0.3 µM
COc1cccc(OC)c1-c1ccc(C[C@H](NC(=O)c2ccc(OC(C)C)cc2Cl)C(=O)O)cc1 [Example 285]	< 0.3 µM
COc1cc(CN2CCC3(CC2)OCCO3)cc(OC)c1-c1ccc(C[C@H](NC(=O)c2c(Cl)cccc2Cl)C(=O)O)cc1 [Example 244]	< 0.3 µM
COc1ccccc1-c1ccc(C[C@H](NC(=O)c2ccc(C(=O)OC(C)(C)C)cc2Cl)C(=O)O)cc1 [Example 176, N-[2-Chloro-4-(tert-butoxycarbonyl)benzoyl]-4-(2-methoxyphenyl)-L-phenylalanine]	0.3 to 1 µM
COc1cccc(OC)c1-c1ccc(C[C@H](NC(=O)c2c(Cl)cc(NS(=O)(=O)C(F)(F)F)cc2Cl)C(=O)O)cc1 [Example 184, N-[2,6-Dichloro-4-[(trifluoromethanesulfonyl)amino]benzoyl]-4-(2,6-dimethoxyphenyl)-L-phenylalanine]	< 0.3 µM

Results, then the compound that gave them:

IC50	Compound
0.3 to 1 µM	COC(=O)[C@H](Cc1ccc(-c2ccccc2S(=O)(=O)NC(C)(C)C)cc1)NC(=O)c1c(Cl)cccc1Cl [Example 15, N-(2,6-Dichlorobenzoyl)-4-[2-[N-(tert-butyl)sulfamoyl]phenyl]-L-phenylalanine methyl ester]
< 0.3 µM	COc1ccc(OC)c(-c2ccc(C[C@H](NC(=O)c3c(Cl)cccc3Cl)C(=O)O)cc2)c1OC [Example 10, N-(2,6-Dichlorobenzoyl)-4-(2,3,6-trimethoxyphenyl)-L-phenylalanine]
0.3 to 1 µM	COC(=O)[C@H](Cc1ccc(-c2ccccc2CNCc2ccccc2)cc1)NC(=O)c1c(Cl)cccc1Cl [Example 114]
< 0.3 µM	COc1ccccc1-c1ccc(C[C@H](NC(=O)c2c(Cl)cc(NS(=O)(=O)C(F)(F)F)cc2Cl)C(=O)O)cc1 [Example 182, N-[2,6-Dichloro-4-[(trifluoromethanesulfonyl)amino]benzoyl]-4-(2-methoxyphenyl)-L-phenylalanine]
> 5 µM	COc1cccc(-c2ccc(C[C@H](NC(=O)c3c(Cl)cccc3Cl)C(=O)O)cc2)c1 [Example 119]
1 to 5 µM	COc1ccccc1-c1ccc(C[C@H](NC(=O)c2ccc(S(N)(=O)=O)cc2)C(=O)O)cc1 [Example 210]
< 0.3 µM	COc1cc(CNCCO)cc(OC)c1-c1ccc(C[C@H](NC(=O)c2c(Cl)cccc2Cl)C(=O)O)cc1 [Example 246]
< 0.3 µM	COc1cc(OCCN(C)C)cc(OC)c1-c1ccc(C[C@H](NC(=O)c2c(Cl)cccc2Cl)C(=O)O)cc1 [Example 223, N-(2,6-Dichlorobenzoyl)-4-[2,6-dimethoxy-4-[2-(N,N-dimethylamino)ethoxy]phenyl]-L-phenylalanine]
< 0.3 µM	COc1c(F)cc2c(c1-c1ccc(C[C@H](NC(=O)c3c(Cl)cccc3Cl)C(=O)O)cc1)OCO2 [Example 154, N-(2,6-Dichlorobenzoyl)-4-(2,3-methylenedioxy-5-fluoro-6-methoxyphenyl)-L-phenylalanine]
< 0.3 µM	COc1cc(CN2CCN(Cc3ccccc3)CC2)cc(OC)c1-c1ccc(C[C@H](NC(=O)c2c(Cl)cccc2Cl)C(=O)O)cc1 [Example 258, N-(2,6-Dichlorobenzoyl)-4-[2,6-dimethoxy-4-[(4-benzyl-1-piperazinyl)methyl]phenyl]-L-phenylalanine]
< 0.3 µM	COc1cccc(OC)c1-c1ccc(C[C@H](NC(=O)c2ccc(NS(=O)(=O)C(F)(F)F)cc2Cl)C(=O)O)cc1 [Example 183, N-[2-Chloro-4-[(trifluoromethanesulfonyl)amino]-benzoyl]-4-(2,6-dimethoxyphenyl)-L-phenylalanine]
< 0.3 µM	COc1ccccc1-c1ccc(C[C@H](NC(=O)c2ccc(NS(=O)(=O)c3ccccc3C)cc2Cl)C(=O)O)cc1 [Example 192, N-[2-Chloro-4-[[(2-methylphenyl)sulfonyl]amino]benzoyl]-4-(2-methoxyphenyl)-L-phenylalanine]
1 to 5 µM	CCCCOc1ccccc1-c1ccc(C[C@H](NC(=O)c2c(Cl)cccc2Cl)C(=O)O)cc1 [Example 34]
1 to 5 µM	CCCCCC(=O)Nc1cccc(-c2ccc(C[C@H](NC(=O)c3c(Cl)cccc3Cl)C(=O)O)cc2)c1 [Example 126]
< 0.3 µM	CCOC(=O)Nc1ccc(C(=O)N[C@@H](Cc2ccc(-c3ccccc3OC)cc2)C(=O)O)c(Cl)c1 [Example 66, N-[2-Chloro-4-(ethoxycarbonylamino)benzoyl]-4-(2-methoxyphenyl)-L-phenylalanine]
